Where a name gives a salt, the structure may show the parent alone.
Test: Water uptake on exposure to air (Karl Fisher water content)
Format: physicochemical
Settings: recrystallized sodium salt 1(b), exposed to air at room temperature for 1 week; 2.9% before exposure; said to indicate fairly high hydroscopic nature

## COc1ccc(C2(C#N)CCC(C(=O)O)CC2)cc1OC1CCCC1 (stereo not drawn) [Example 1, cis-4-cyano-4-[3-(cyclopentyloxy)-4-methoxyphenyl]cyclohexane-1-carboxylic acid sodium salt]
  water content on Karl Fisher after exposure to air: 22.9%

From US20030013905A1, “Salts of cis-4-cyano-4[3(cyclopentyloxy)-4-methoxyphenyl]cyclohexane-1-carboxylic acid” (priority 2002, published 2003)
